From US8759334B2, “Compounds useful for the treatment of metabolic and inflammatory diseases” (Galapagos NV, priority 2011, dated 2014) come the findings set out here.

Type in all cases: cell-based
Experiment [1] concerns the target T1, GPR43 (Homo sapiens, UniProt O15552).
T1 construct: expressed in transfected cells
T1 sequence (O15552 1-330): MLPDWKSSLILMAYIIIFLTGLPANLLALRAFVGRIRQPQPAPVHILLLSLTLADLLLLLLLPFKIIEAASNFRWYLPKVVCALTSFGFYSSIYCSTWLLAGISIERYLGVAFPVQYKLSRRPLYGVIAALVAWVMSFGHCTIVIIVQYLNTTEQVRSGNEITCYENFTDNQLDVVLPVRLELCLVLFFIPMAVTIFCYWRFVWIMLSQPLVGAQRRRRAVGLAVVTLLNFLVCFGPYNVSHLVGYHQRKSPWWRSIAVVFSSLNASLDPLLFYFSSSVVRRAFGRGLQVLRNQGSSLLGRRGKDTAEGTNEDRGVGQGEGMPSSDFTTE
As to the kind of experiment: Calcium mobilization assay without probenecid. The note with it: GPR43 stably expressing cells, triggered with sodium acetate at EC80, read-out: GPR43 assay without probenicid IC50. In a few lines:
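In GPR43-expressing cells loaded with a Calcium 4 dye, antagonism was tested by a 15 min compound preincubation at 37 °C, then a sodium acetate challenge at EC80, with Ca-flux read on injection. For agonism, Ca-flux was recorded directly on compound injection.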
(In general: Calcium assays in cells follow changes in intracellular calcium, usually with a dye or a luminescent sensor.)

The target in experiment [2] is T1, GPR43. As to the kind of experiment: Calcium mobilization assay with probenecid. The note with it: GPR43 stably expressing cells; triggered with sodium acetate at EC80; 2.5 mM probenecid; read-out: GPR43 assay with probenicid IC50. In a few lines:
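[…] being added at rising concentrations to a GPR43 stable line. Before this, cells were dye-loaded (Calcium 4 with 2.5 mM probenecid) for 2 h at 37 °C after overnight plating.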

The next experiment has as its system human neutrophils. As to the kind of experiment: Neutrophil migration assay. The note with it: neutrophils from human buffy coat, migration towards sodium acetate, read-out: human neutrophil migration inhibition EC50. The protocol: G Protein-Coupled Receptor 43 (GPR43) was described as an essential player in the process of neutrophil recruitment during intestinal inflammation.
The effect of agonists or antagonists for GPR43 can therefore be assayed in a neutrophil migration test. In the neutrophil migration assay, neutrophils, isolated from buffy coats from human volunteers, are treated with a compound for 30 minutes. Subsequently, the neutrophils are transferred to the upper wells of a Corning HTS transwell 96 permeable support system, of which the lower wells are filled with a sodium acetate solution.
The ACD buffer consists of 140 mM citric acid, 200 mM sodium citrate and 220 mM dextrose. The 6% dextran/0.9% NaCl solution consists of 15 g dextran T2000 and 2.25 g NaCl dissolved in 250 mL H2O.
A human buffy coat is diluted with an equal volume of ice cold DPBS. 20 mL of the diluted buffy coat is gently mixed with 4 mL of ACD buffer. Then, 12 mL of the 6% dextran/0.9% NaCl solution is added to the mixture and the samples are inverted gently up to 20 times. The total volume is transferred to a new recipient and incubated at room temperature for 1 h for complete separation of the two phases to occur. The yellowish supernatant is then transferred to a clean centrifugation tube and centrifuged for 12 minutes at 1300 rpm and 4° C. After centrifugation, the supernatant is discarded and the remaining cell pellet is rapidly resuspended in 12 mL of ice-cold H2O for red blood cell lysis to occur. After 20 seconds, 4 mL of ice-cold 0.6 M KCl is added. Samples are mixed carefully and centrifuged for 6 minutes at 1300 rpm, 4° C. The supernatant is discarded and the red blood cell lysis procedure is repeated one more time. […] After centrifugation for 12 min at 1300 rpm, 4° C., the supernatant is removed and the cell pellet, containing the neutrophils, is resuspended in 25 mL chemotaxis buffer.
A cell suspension of 8.9×10^6 cells per milliliter is prepared. 20 μL of compound solution in chemotaxis buffer is added to 180 μl cell suspension. The mixture is incubated at 37° C. for 30 minutes with Intermediate resuspension of the cells after 15 minutes. […] The receiver well of the transwell system is then filled with 200 μL chemotaxis buffer containing compound and chemotactic agent (sodium acetate). After incubation at 37° C. in 5% CO2 for 1 h, the upper plate of the transwell system is removed and the cell suspension in the receiver plate is transferred to a 96-well V-bottom plate. 50 μL of DPBS is added to the receiver plate to prevent remaining cells from drying out. The V-bottom plate is centrifuged for 6 minutes at 1500 rpm. The supernatant is removed and the cells are resuspended in 50 μL DPBS. The cells are then transferred back to the receiver plate of the transwell system. […] The plate is incubated for 10 minutes in the dark, while shaking. 170 μL of cell lysate is then transferred to a white 96-well plate and luminescence is measured. The detected luminescent signal is considered as linearly related to the number of migrated cells.

By IC50 is commonly meant the concentration that gives 50% inhibition.

Consider `CC1(C(=O)N(CC(=O)O)Cc2ccc(Cl)cc2)CCN1C(=O)Cc1csc2ccccc12` (centres unmarked) [Compound 61, [[1-(2-Benzo[b]thiophen-3-yl-acetyl)-2-methyl-azetidine-2-carbonyl]-(4-chloro-benzyl)-amino]-acetic acid], for which the IC50 on GPR43 [1] and on GPR43 [2] was 0.01 to 100 nM throughout. For the same compound, the EC50 in the experiment on human neutrophils fell in the range of 0.01 to 100 nM.

Turning to `CC1(C(=O)N(CCCC(=O)O)Cc2ccc(Cl)cc2)CCN1C(=O)Cc1csc2ccccc12` (centres unmarked) [Compound 89, 4-[[1-(2-Benzo[b]thiophen-3-yl-acetyl)-2-methyl-azetidine-2-carbonyl]-(4-chloro-benzyl)-amino]-butyric acid], the 50% inhibitory concentration (IC50) at GPR43 [1] and on GPR43 [2] was 0.01 to 100 nM each time. The EC50 in the experiment on human neutrophils lay within 0.01 to 100 nM.

Regarding `Cc1cc(C)cc(CC(=O)N2CCC2(C)C(=O)N(CCCC(N)=O)Cc2ccc(Cl)cc2)c1` (centres unmarked) [Compound 90, 1-[2-(3,5-Dimethyl-phenyl)-acetyl]-2-methyl-azetidine-2-carboxylic acid (3-carbamoyl-propyl)-(4-chloro-benzyl)-amide], the half-maximal inhibitory concentration (IC50) at GPR43 [1] is 0.01 to 100 nM; on GPR43 [2], 101 to 500 nM. The EC50 in the experiment with human neutrophils was in the range of 0.01 to 100 nM.

Turning to `Cc1cc(C)cc(CC(=O)N2CCC2(C)C(=O)N(CC(=O)NS(C)(=O)=O)Cc2ccc(Cl)cc2)c1` (centres unmarked) [Compound 95, 1-[2-(3,5-Dimethyl-phenyl)-acetyl]-2-methyl-azetidine-2-carboxylic acid (4-chloro-benzyl)-(2-methanesulfonylamino-2-oxo-ethyl)-amide], the half-maximal inhibitory concentration (IC50) on GPR43 [1] is 501 to 1000 nM; on GPR43 [2], greater than 1000 nM.

Consider `Cc1cc(C)cc(CC(=O)N2CCC2(C)C(=O)N(CCCC#N)Cc2ccc(Cl)cc2)c1` (centres unmarked) [Compound 97, 1-[2-(3,5-Dimethyl-phenyl)-acetyl]-2-methyl-azetidine-2-carboxylic acid (4-chloro-benzyl)-(3-cyano-propyl)-amide], for which the IC50 at GPR43 [1] was 101 to 500 nM; on GPR43 [2], 501 to 1000 nM.

Consider `CN(Cc1ccc(Cl)cc1)C(=O)C1(C)CCN1C(=O)c1csc2ccccc12` (centres unmarked) [Compound 98, 1-(Benzo[b]thiophene-3-carbonyl)-2-methyl-azetidine-2-carboxylic acid (4-chloro-benzyl)-methyl-amide], for which the half-maximal inhibitory concentration (IC50) at GPR43 [1] and at GPR43 [2] was 101 to 500 nM each time.

Consider `CC1(C(=O)N(CCCc2nnn[nH]2)Cc2ccc(Cl)cc2)CCN1C(=O)Cc1csc2ccccc12` (centres unmarked) [Compound 100, 1-(2-Benzo[b]thiophen-3-yl-acetyl)-2-methyl-azetidine-2-carboxylic acid (4-chloro-benzyl)-[3-(1H-tetrazol-5-yl)-propyl]-amide], for which the IC50 at GPR43 [1] and on GPR43 [2] was 0.01 to 100 nM throughout.

With `CC(=O)NCCN(Cc1ccc(Cl)cc1)C(=O)C1(C)CCN1C(=O)Cc1cc(C)cc(C)c1` (centres unmarked) [Compound 101, 1-[2-(3,5-Dimethyl-phenyl)-acetyl]-2-methyl-azetidine-2-carboxylic acid (2-acetylamino-ethyl)-(4-chloro-benzyl)-amide], the IC50 at GPR43 [1] and at GPR43 [2] was 101 to 500 nM in each case.

As to `Cc1cc(C)cc(CC(=O)N2CCC2(C)C(=O)N(CCNS(C)(=O)=O)Cc2ccc(Cl)cc2)c1` (centres unmarked) [Compound 102, 1-[2-(3,5-Dimethyl-phenyl)-acetyl]-2-methyl-azetidine-2-carboxylic acid (4-chloro-benzyl)-(2-methanesulfonylamino-ethyl)-amide], the IC50 at GPR43 [1] lay within 501 to 1000 nM; on GPR43 [2] it was 101 to 500 nM.

With `CC1(C(=O)N(CCCC(=O)O)Cc2ccc(Cl)cc2)CCN1C(=O)Cc1coc2ccccc12` (centres unmarked) [Compound 103, 4-[[1-(2-Benzofuran-3-yl-acetyl)-2-methyl-azetidine-2-carbonyl]-(4-chloro-benzyl)-amino]-butyric acid], on GPR43 [2], the half-maximal inhibitory concentration (IC50) was in the range of 101 to 500 nM. Also, the EC50 in the experiment with human neutrophils lay in the range of 501 to 1000 nM.

For the compound `Cc1cc(C)cc(CC(=O)N2CCC2(C)C(=O)N(CC(=O)O)Cc2ccc3cn[nH]c3c2)c1` (centres unmarked) [Compound 110, [{1-[2-(3,5-Dimethyl-phenyl)-acetyl]-2-methyl-azetidine-2-carbonyl}-(1H-indazol-6-ylmethyl)-amino]-acetic acid], on GPR43 [2], the IC50 was 101 to 500 nM. Besides, the EC50 with human neutrophils fell in the range of 101 to 500 nM.

In the case of `Cc1cc(C)cc(CC(=O)N2CCC2(C)C(=O)N(CCCC(=O)O)Cc2ccc3cc[nH]c3c2)c1` (centres unmarked) [Compound 113, 4-[{1-[2-(3,5-Dimethyl-phenyl)-acetyl]-2-methyl-azetidine-2-carbonyl}-(1H-indol-6-ylmethyl)-amino]-butyric acid], at GPR43 [2], the 50% inhibitory concentration (IC50) lay in the range of 0.01 to 100 nM. Moreover, in the experiment with human neutrophils, the EC50 was in the range of 0.01 to 100 nM.

Turning to `Cc1cc(C)cc(CC(=O)N2CCC2(C)C(=O)N(CCCC(=O)N2CCOCC2)Cc2ccc(Cl)cc2)c1` (centres unmarked) [Compound 122, 1-[2-(3,5-Dimethyl-phenyl)-acetyl]-2-methyl-azetidine-2-carboxylic acid (4-chloro-benzyl)-(4-morpholin-4-yl-4-oxo-butyl)-amide], the IC50 on GPR43 [2] was in the range of 101 to 500 nM. The EC50 in the experiment with human neutrophils lay within 101 to 500 nM.

For `Cc1cc(C)cc(CC(=O)N2CCC2(C)C(=O)N(CCCC(=O)O)Cc2ccc3cn[nH]c3c2)c1` (centres unmarked) [Compound 123, 4-[{1-[2-(3,5-Dimethyl-phenyl)-acetyl]-2-methyl-azetidine-2-carbonyl}-(1H-indazol-6-ylmethyl)-amino]-butyric acid], on GPR43 [2], the half-inhibitory concentration (IC50) was in the range of 101 to 500 nM. Further, the EC50 in the experiment on human neutrophils is 0.01 to 100 nM.

In the case of `CC1(C(=O)N(CCCC(=O)O)Cc2ccc3cn[nH]c3c2)CCN1C(=O)Cc1csc2ccccc12` (centres unmarked) [Compound 130, 4-[[1-(2-Benzo[b]thiophen-3-yl-acetyl)-2-methyl-azetidine-2-carbonyl]-(1H-indazol-6-ylmethyl)-amino]-butyric acid], on GPR43 [2], the IC50 lay within 0.01 to 100 nM. Also, the EC50 with human neutrophils was in the range of 101 to 500 nM.

For `CC1(C(=O)N(CCCC(=O)O)Cc2ccc3ccoc3c2)CCN1C(=O)Cc1csc2ccccc12` (centres unmarked) [Compound 131, 4-{[1-(2-Benzo[b]thiophen-3-yl-acetyl)-2-methyl-azetidine-2-carbonyl]-benzofuran-6-ylmethyl-amino}-butyric acid], the IC50 on GPR43 [2] was 0.01 to 100 nM. Also, in the experiment with human neutrophils, the EC50 is 101 to 500 nM.

In the case of `Cc1cc(C)cc(CC(=O)N2CCC2(C)C(=O)N(Cc2ccc(Cl)cc2)Cc2cc(O)no2)c1` (centres unmarked) [Compound 132, 1-[2-(3,5-Dimethyl-phenyl)-acetyl]-2-methyl-azetidine-2-carboxylic acid (4-chloro-benzyl)-(3-hydroxy-isoxazol-5-ylmethyl)-amide], the IC50 at GPR43 [2] was 0.01 to 100 nM. Also, the EC50 with human neutrophils was 101 to 500 nM.

As for `CC1(C(=O)N(CCCC(=O)O)Cc2ccc3cc[nH]c3c2)CCN1C(=O)Cc1coc2ccccc12` (centres unmarked) [Compound 137, 4-[[1-(2-Benzofuran-3-yl-acetyl)-2-methyl-azetidine-2-carbonyl]-(1H-indol-6-ylmethyl)-amino]-butyric acid], the IC50 on GPR43 [2] is 0.01 to 100 nM. Also, the EC50 in the experiment with human neutrophils fell in the range of 0.01 to 100 nM.

On to `CC1(C(=O)N(CCCC(=O)O)Cc2ccc3cn[nH]c3c2)CCN1C(=O)c1csc2ccccc12` (centres unmarked) [Compound 157, 4-[[1-(Benzo[b]thiophene-3-carbonyl)-2-methyl-azetidine-2-carbonyl]-(1H-indazol-6-ylmethyl)-amino]-butyric acid], for which, on GPR43 [2], the IC50 lay in the range of 101 to 500 nM. The EC50 in the experiment with human neutrophils fell in the range of 0.01 to 100 nM.
